The target in assay [1] is Leukocyte tyrosine kinase receptor (Homo sapiens, UniProt P29376). To be noted: at 10 µM.
Assay [2] concerns the target Cyclin-dependent kinase 17 (Homo sapiens) (UniProt Q00537). In words: Selectivity interaction (KinomeScan (DiscoverX)) EUB0000092b CDK17. The settings on record: at 10 µM.
The target of assay [3] is Serine/threonine-protein kinase 38 (Homo sapiens) (UniProt Q15208). Nature of the assay: Selectivity interaction (KinomeScan (DiscoverX)) EUB0000092b STK38. To be noted: at 10 µM.
Chain of Serine/threonine-protein kinase 38 (Homo sapiens) (Q15208 2-465 limits assumed): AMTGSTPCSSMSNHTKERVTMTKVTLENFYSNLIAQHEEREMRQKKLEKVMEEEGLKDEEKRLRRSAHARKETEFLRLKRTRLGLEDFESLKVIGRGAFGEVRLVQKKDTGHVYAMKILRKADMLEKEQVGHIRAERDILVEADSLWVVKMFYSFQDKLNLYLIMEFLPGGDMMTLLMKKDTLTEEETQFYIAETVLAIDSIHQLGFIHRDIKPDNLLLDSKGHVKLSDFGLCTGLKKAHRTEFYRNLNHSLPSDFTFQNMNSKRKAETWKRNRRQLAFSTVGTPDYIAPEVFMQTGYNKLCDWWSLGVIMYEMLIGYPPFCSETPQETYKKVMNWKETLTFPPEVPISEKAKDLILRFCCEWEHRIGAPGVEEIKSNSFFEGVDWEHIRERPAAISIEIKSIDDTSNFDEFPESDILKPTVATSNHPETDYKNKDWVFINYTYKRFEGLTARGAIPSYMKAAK
In assay [4] the target is T1, Serine/threonine-protein kinase TAO3 (Homo sapiens) (UniProt Q9H2K8).
T1 sequence (whole entry): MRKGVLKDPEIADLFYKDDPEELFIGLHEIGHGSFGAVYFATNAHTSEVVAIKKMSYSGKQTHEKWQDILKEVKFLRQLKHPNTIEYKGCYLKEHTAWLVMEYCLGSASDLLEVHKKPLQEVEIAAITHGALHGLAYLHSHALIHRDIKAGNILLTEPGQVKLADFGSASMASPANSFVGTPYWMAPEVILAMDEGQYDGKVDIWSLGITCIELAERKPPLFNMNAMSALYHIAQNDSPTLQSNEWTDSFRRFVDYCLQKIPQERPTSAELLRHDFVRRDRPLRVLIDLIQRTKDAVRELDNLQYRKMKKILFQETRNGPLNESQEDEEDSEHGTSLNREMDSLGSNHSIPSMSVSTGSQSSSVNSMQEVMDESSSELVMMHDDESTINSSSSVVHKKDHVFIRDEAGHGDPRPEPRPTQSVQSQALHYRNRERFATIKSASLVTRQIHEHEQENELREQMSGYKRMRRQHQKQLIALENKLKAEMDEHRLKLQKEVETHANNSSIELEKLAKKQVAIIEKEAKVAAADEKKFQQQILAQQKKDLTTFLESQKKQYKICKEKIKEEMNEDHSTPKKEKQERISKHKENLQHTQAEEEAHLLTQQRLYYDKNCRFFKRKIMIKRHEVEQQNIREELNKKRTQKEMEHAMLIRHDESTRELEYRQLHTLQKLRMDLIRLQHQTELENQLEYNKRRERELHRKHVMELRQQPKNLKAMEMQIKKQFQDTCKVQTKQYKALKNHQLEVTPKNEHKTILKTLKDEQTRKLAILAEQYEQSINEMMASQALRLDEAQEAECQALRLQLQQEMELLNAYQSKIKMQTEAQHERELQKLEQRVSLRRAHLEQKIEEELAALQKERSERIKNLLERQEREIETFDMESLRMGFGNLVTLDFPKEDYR
In words: Selectivity interaction (KinomeScan (DiscoverX)) EUB0000695a TAOK3. The settings on record: at 100 nM.

Assay [5] has as its target T2, Cyclin-G-associated kinase (Homo sapiens) (UniProt O14976).
T2 sequence (whole entry): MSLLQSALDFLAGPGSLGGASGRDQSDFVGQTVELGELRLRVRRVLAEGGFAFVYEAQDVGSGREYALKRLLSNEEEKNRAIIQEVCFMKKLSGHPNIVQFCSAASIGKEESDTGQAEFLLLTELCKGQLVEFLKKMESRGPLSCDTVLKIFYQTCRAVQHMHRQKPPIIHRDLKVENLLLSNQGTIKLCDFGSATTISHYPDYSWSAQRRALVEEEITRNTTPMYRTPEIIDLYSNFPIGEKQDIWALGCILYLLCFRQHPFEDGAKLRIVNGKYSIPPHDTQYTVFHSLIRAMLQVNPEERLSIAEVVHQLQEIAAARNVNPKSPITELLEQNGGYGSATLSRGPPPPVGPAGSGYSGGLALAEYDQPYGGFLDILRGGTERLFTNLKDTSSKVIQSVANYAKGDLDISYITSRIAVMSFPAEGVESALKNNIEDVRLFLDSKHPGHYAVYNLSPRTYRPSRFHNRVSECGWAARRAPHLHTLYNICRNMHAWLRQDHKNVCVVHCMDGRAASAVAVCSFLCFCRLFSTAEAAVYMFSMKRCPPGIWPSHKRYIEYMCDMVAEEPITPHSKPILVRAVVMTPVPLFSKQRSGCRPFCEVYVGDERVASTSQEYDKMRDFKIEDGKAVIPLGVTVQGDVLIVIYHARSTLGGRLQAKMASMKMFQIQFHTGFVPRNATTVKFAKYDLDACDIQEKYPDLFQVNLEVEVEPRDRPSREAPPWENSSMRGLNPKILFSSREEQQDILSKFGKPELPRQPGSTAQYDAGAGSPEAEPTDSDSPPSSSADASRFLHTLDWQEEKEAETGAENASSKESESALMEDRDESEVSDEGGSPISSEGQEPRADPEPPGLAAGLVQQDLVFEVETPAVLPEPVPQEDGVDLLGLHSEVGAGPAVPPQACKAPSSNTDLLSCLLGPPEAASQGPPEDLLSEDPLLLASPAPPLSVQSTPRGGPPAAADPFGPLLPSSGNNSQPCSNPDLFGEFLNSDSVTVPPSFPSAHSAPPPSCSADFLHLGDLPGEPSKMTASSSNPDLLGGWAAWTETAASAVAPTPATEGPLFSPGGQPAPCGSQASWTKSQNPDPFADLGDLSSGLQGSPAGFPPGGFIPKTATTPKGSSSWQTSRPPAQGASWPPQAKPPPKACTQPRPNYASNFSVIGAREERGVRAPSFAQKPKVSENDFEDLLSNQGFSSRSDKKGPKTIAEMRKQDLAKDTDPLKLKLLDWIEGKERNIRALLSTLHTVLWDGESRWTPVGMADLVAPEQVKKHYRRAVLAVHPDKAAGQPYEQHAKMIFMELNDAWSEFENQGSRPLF
Nature of the assay: Selectivity interaction (KinomeScan (DiscoverX)) EUB0000695a GAK. The settings on record: at 100 nM.

Chain of Cyclin-dependent kinase 17 (Homo sapiens) (Q00537 whole entry, looked up): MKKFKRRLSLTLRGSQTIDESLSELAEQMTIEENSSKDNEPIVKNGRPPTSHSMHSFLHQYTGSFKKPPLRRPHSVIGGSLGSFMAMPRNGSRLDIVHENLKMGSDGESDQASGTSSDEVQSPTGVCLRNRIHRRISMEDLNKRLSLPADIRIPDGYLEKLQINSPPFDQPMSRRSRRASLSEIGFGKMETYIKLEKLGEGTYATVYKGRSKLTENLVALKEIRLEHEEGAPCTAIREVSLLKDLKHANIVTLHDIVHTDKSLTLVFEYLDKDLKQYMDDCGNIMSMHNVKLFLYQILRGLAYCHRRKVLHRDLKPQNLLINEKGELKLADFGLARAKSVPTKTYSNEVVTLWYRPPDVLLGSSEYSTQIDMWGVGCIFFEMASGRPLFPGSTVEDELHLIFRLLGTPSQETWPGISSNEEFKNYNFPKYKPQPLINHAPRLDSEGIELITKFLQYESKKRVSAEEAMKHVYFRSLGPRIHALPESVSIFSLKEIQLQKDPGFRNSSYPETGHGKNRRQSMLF
Chain of Leukocyte tyrosine kinase receptor (P29376 whole entry): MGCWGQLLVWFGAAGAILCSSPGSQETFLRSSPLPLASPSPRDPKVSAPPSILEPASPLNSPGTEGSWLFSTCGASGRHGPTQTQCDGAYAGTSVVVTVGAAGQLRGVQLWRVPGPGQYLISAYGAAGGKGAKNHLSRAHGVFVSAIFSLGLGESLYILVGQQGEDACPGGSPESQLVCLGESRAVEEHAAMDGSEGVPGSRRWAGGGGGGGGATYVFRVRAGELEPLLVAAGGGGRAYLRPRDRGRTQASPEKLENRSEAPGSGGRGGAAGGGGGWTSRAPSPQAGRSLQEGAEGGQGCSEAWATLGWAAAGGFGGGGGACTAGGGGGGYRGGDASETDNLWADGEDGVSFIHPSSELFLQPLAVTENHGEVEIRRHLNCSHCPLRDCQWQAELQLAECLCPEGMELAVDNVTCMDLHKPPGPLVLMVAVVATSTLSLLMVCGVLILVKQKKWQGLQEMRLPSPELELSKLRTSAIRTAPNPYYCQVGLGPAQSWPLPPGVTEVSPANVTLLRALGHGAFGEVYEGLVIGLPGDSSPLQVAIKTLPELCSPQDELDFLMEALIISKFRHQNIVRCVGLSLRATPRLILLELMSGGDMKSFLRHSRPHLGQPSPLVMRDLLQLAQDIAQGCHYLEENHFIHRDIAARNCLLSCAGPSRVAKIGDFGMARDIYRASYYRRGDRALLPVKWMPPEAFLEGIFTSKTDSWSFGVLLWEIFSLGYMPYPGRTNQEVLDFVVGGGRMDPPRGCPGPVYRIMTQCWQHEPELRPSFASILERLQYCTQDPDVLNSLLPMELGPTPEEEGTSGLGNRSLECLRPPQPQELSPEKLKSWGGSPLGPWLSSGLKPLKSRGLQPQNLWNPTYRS

`Cc1cc([C@@H](C)Nc2ccccc2C(=O)O)c2nc(N3CCOCC3)cc(=O)n2c1` [AZD-6482] returned a % of control in assay [1] of 95%.

For the compound `CCC(=O)N1CCN(c2ccc(-n3c(=O)ccc4cnc5ccc(-c6cnc7ccccc7c6)cc5c43)cc2C(F)(F)F)CC1`, the results for the % of control in assay [2] and in assay [3] were 97% and 100%, respectively.

Take `Cc1cc(F)c(C(=O)Nc2cccc(-c3nncn3C(C)C)n2)cc1-n1cnc(C2CC2)c1`: the figures for the % of control in assay [4] and in assay [5] were 100% and 88%, respectively.

The values are drawn from ChEMBL document CHEMBL5465560, “Selectivity Literature for EUbOPEN Chemogenomic Library” (2024).
